# Entries after “also recorded” stand apart in the source; their conditions may differ. No end group written: not given here.
# Legend:
# [1] = tested on: E. coli; test: HRP release from Affigel-GV2-HRP beads, ABTS/H2O2 read at 405 nm; assay type: biochemical, Escherichia coli; details: 5 minutes at ambient temperature
# Method: (§1) Various bacteria were cultured overnight at 37° C. in NYC III media with 5% CO2. A 10% slurry of Affigel-GV2-HRP in PBS was prepared, and 20 μl was added to six wells of a 96-well filter plate (Millipore Multi-screen HTS). Aliquots of the bacteria, including Gardnerella vaginalis, Pseudomonas aeruginosa, E. coli, Streptococcus pyogenes, Enterococcus faecalis, and Staphylococcus aureus, were added (100 μl) to the beads, and the plate was allowed to sit for 5 minutes at ambient temperature. The supernatants were centrifuged into a low-binding assay plate (Coming 3641), and assays for HRP were then run. 2,2′-azino-bis(3-ethylbenzthiazoline-6-sulfonic acid) (ABTS, US Biological) is a commonly used substrate for HRP, giving a water-soluble blue-green color in the presence of HRP and hydrogen peroxide. The formation of the bluegreen color can be followed at 405 nm, with higher slopes indicating the presence of higher amounts of HRP.
# [2] = tested on: Gardnerella vaginalis; test: as above; assay type: biochemical; details: peptide conjugated to HRP on Affigel beads, 5 minutes
# Method: as §1, with “2,2′-azino-bis(3-ethylbenzthiazoline-6-sulfonic acid) (ABTS, US Biological) is a commonly used substrate for HRP, giving a water-soluble blue-green color in the presence of HRP and hydrogen peroxide. The formation of the bluegreen color can be followed at 405 nm, with higher slopes indicating the presence of higher amounts of HRP.” left out
# Gardnerella vaginalis was detected with the peptide PFINETYAKFC (SEQ ID NO: 1) which was conjugated to HRP. […] Alternatively, the color change can be measured on a plate reader at 405 nm.
# (§2) FIG. 11 illustrates the specificity of the GV2 (PFINETYAKFC) (SEQ ID NO: 1) peptide for Gardnerella vaginalis over the course of five minutes when incubated with Gardnerella vaginalis, Staphylococcus aureus, Streptococcus pyogenes, Escherichia coli (E. coli), Pseudomonas aeruginosa, and Enterococcus faecalis. The extracts were filtered through microtiter plate filters and the HRP release was measured at 405 nm with ABTS substrate in the presence of hydrogen peroxide (H202).
# [3] = tested on: Staphylococcus aureus, Streptococcus pyogenes, Escherichia coli (E. coli), Pseudomonas aeruginosa, and Enterococcus faecalis; test: HRP release from GV2-HRP beads, specificity against other common pathogens; assay type: biochemical; details: five minutes, FIG. 11
# Method: as §1, with “The formation of the bluegreen color can be followed at 405 nm, with higher slopes indicating the presence of higher amounts of HRP.” left out
# as §2
# [4] = tested on: C. albicans; test: Identification of peptide targets for C. albicans; assay type: biochemical, Candida albicans
# Method: Clones of green fluorescent protein (GFP) tagged conjugates were used to identify targets in a high throughput screen. Each clone contained a plasmid harboring a gene that contains a polyhistidine tag (6 his), 30 random nucleotides (corresponding to 10 random amino acids), and green fluorescent protein (GFP). On the day before a screen, 864 glowing clones are grown up overnight at 37° C. in deep well microtiter plates (1 ml/well). In the morning, the cultures can be induced with 1 mM IPTG for 1 hour, the cells can be centrifuged for five minutes, and then the media can be decanted. Lysozyme (2 mg/ml) can be added and the cells can be flash frozen 3 times. The samples can be treated with 100 ul/well of DNAse I at 37° C. for 30 minutes to reduce the viscosity by digesting the DNA. An aliquot of the sample can then be transferred to a microtiter filter plate containing 10 μl of nickel-NTA resin. The pipeting of the reagents (IPTG, lysozyme, DNAse I, and beads) can be performed with a Tecan Genesis RSP 100 Robot with Gemini version 4.0 software.
# The plates can be filtered by centrifugation three times with PBS to remove unbound material and then the GFP-peptide-bound bead can be incubated with microbial extract for 20 min at 37° C. The sample can be filtered and the flow through fluorescence can be compared with the background from the prior wash. If the microbe has a protease that finds the ideal target, then the release of GFP fluorescence from the bead can be over 100 times greater than the background.
# (SEQ ID NO: 8), the sequence QKTTIKKLKH (H2) (SEQ ID NO: 9), the sequence KPKAFLKVGN (R8) (SEQ ID NO: 6), the sequence TPIQIHTILH (SEQ ID NO: 10), the sequence […] (SEQ ID NO: 11), the sequence […] (SEQ ID NO: 12), and the sequence […] (SEQ ID NO: 13).
# [5] = tested on: C. albicans; test: G11 peptide detection of C. albicans grown in artificial vaginal fluid; assay type: biochemical, Candida albicans; details: FIG. 23
# [6] = tested on: unidentified protease from Lactobacillus acidophilus; test: Peptide-HRP Affigel bead detection of Lactobacillus protease; assay type: biochemical; details: FIG. 12
# Method: The two putative peptides were synthesized, coupled to Affigel beads (Bio-Rad, Hercules Calif.), and then labeled with horseradish peroxidase in the following manner:
# Peptides were coupled to Affigel beads as described by the manufacturer. Similar results were obtained using small latex beads with carboxylic acid groups. Briefly, 1 mg of peptide was incubated with 1 ml of affigel in conjugation buffer (phosphate buffered saline) for 1-2 hours at room temperature. For the small latex beads functionalized with carboxylic acids, the peptides/proteins are coupled with EDC (1-ethyl-3-[3 dimethylaminopropyl] carbodiimide hydrochloride). The beads are either used immediately or conjugated further with HRP-maleimide or stored at 4° C. under a cushion of 2% trehalose or 2% sucrose.
# HRP is conjugated to sulfo-SMCC though a reactive primary amine group. The reaction is performed for 1 hour in the presence of 50 mM sodium phosphate buffer (pH 7.4). The functionalized HRP is removed from the unbound sulfo-SMCC by gel filtration using P6 Biogel P polyacrylamide beads, Biorad (Hercules, Calif.) or Sephadex G50 beads (Amersham Biosciences, Piscataway, N.J.). The HRP-maleimide elutes in the void volume, whereas the free sulfo-SMCC elutes very slowly from the column. The HRP binds hemin, and, thus, has a brown color that can be used to quickly identify the void volume containing the HRP-maleimide. […]
sequence,measurement,setting,value
PFINETYAKFC (also: Affigel bead and HRP conjugate) [GV2],"HRP release signal (ABTS, 405 nm)",[1],small amount of signal
same,HRP release / color change with H2O2 and ABTS substrate,[2],quite specific for G. vaginalis; also recorded: turns blue; also recorded: detects unidentified protease from G. vaginalis
same,HRP release / color change with H2O2 and ABTS substrate,[2]; listed as PFINETYAKFC,color change was observed quickly
same,"color change (HRP release, ABTS, 405 nm) with other common pathogens",[3],not in the presence of other common pathogens
TPIQIHTILH (Peptide Substrate of Candida spp.) [G11],identified as peptide target for C. albicans,[4],peptide targets for C. albicans
same,ability to detect C. albicans,[5],able to detect C. albicans; also recorded: able to detect Candida albicans
ITTTSSKHEHC (Peptide Substrate of Lactobacillus acidophilus) [peptide substrate detecting a protease from Lactobacillus],detection of protease from Lactobacillus,[6],detects an unknown protease; also recorded: detects an unidentified protease

# — patent US20070128589A1, “Substrates, sensors, and methods for assessing conditions in females” (priority 2005, published 2007)
